Consider 4 compounds from patent US20140057915A1, “KINASE INHIBITORS” (TOPIVERT PHARMA LIMITED, priority 2012, published 2014).

Series [1] addresses B-Raf (Homo sapiens, UniProt P15056). Description: Enzyme binding assay (Kinomescan). The method, then: Enzyme Binding Assays (Kinomescan)
The kinase enzyme binding activities of compounds disclosed herein were determined using a proprietary assay which measures active site-directed competition binding to an immobilized ligand (Fabian, M. A. et al., Nature Biotechnol., 2005, 23:329-336). These assays were conducted by DiscoverX (formerly Ambit; San Diego, Calif.). The percentage inhibition produced by incubation with a test compound is calculated relative to the non-inhibited control.

Series [2] relates to intestinal mucosa biopsies from the inflamed regions of the colon of IBD patients. Description: Human biopsy assay (cytokine release from intestinal mucosa biopsies of IBD/UC patients). Type of series: cell-based. The settings on record: in vitro. As to the method:
Intestinal mucosa biopsies are obtained from the inflamed regions of the colon of IBD patients. The biopsy material is cut into small pieces (2-3 mm) and placed on steel grids in an organ culture chamber at 37° C. in a 5% CO2/95% O2 atmosphere in serum-free media. DMSO control or test compounds at the desired concentration are added to the tissue and incubated for 24 hr in the organ culture chamber. The supernatant is harvested for determination of IL-6, IL-8, IL-1β and TNFα levels by R&D ELISA.

The subject of series [3] is BDF1 mice. Description: TNBS-induced colitis in mice. Type of series: in vivo, mouse. To be noted: for inflammatory cell infiltrate in the reticular and lamina propria zones / activity in the in vivo model of colonic inflammation (histopathology analysis): TNBS; for activity in the in vivo model of colonic inflammation (histopathology analysis): 2 days; for ulcer grade and epithelial repair compared to the vehicle control: dosed orally at 5 mg/kg. The method, then: (C) TNBS-Induced Colitis in Mice […] On Day 0 of the study TNBS (200 μL) is administered intra-colonically via a plastic catheter followed by BID dosing of the vehicle, reference or test compound for 2 or 4 days. During the study animals are weighed every day and stool observations are made and recorded as a score, based on stool consistency. At the time of sacrifice on Day 2 (or Day 4) the large intestine is removed and the length and weight recorded. Sections of the colon are taken for either MPO analysis to determine neutrophil infiltration or for histopathology involving scoring to determine disease severity.

Series [4] in a line: Hepatic microsomal stability. Type of series: in vitro ADME, human. To be noted: for Mean hepatic extraction ratio (Eh) / microsomal CLint at 0.1 μM: human hepatic microsomes, arithmetic mean of two experiments; for microsomal CLint at 0.1 μM: pooled liver microsomes, read-out: Mean intrinsic clearance; for hepatic clearance: summary of Tables 9a and 9b (microsomes and hepatocytes; human, dog, rat). The method, then:
(§1) Hepatic Microsomal Stability
(§2) • Microsomal stability assays were performed with incubations of test compounds at 0.1 μM (n=2, final DMSO concentration 0.25%), and carried out using pooled human, dog and rat hepatic microsomes from Xenotech (Lots 1210153, 0810143 and 1110042, respectively) at 0.25 mg protein/mL in the presence of co-factor, NADPH. The incubations were performed at 37° C. with 100 μL aliquots taken from the incubation, at 0, 2, 5, 10 and 20 minutes and reactions terminated by addition of 100 μL of acetonitrile containing carbamazepine as analytical internal standard. […] Half-life values were calculated from the relationship
(§3) where λ was the slope of the Ln concentration vs time curve. • The in vitro intrinsic clearance, CIint (mL/min/kg), was calculated and scaled to hepatic extraction ratios using the following scaling parameters and formulae.
(§4) CIint(tissue clearance) mL/min/kg=[0.693/t½(min)]×[1/microsomal protein concentration mg/mL]×[mg microsomes/g liver]×[g liver/kg body weight]
(§5) CIint(hepatic clearance) mL/min/kg=hepatic blood flow×CIint/(hepatic blood flow+CIint)
(§6) Hepatic extraction ratio(Eh)=CIint(hepatic clearance) mL/min/kg/hepatic blood flow(mL/min/kg)

Series [5] is described as follows: Hepatic microsomal stability. Type of series: in vitro ADME. To be noted: arithmetic mean of two experiments; for microsomal CLint at 0.1 μM: pooled liver microsomes, read-out: Mean intrinsic clearance. The method, then: as §1, §2, §3, §4, §5, §6
Series [6] addresses CYP2C9 (Homo sapiens, UniProt P11712). Description: Time-dependent inhibition of cytochromes (CYP450 TDI). The settings on record: human, pooled human liver microsomes, pH 7.4, probe diclofenac, CYP2C9 (diclofenac probe), 15 μM, human hepatic microsomes, read-out: 15 μM % Inh. The series is classed as in vitro ADME. The method, then:
(§7) (ii) Time-Dependent Inhibition of Cytochromes
(§8) CYP450 time-dependent inhibition (TDI) assays were performed with test compound at six test concentrations, 0.062 μM to 15 μM (n=2). The test compounds was pre-incubated for 30 minutes with pooled human hepatic microsomes in 0.1 M Tris buffer, pH 7.4, at 37° C. in the presence of cofactor NADPH. A parallel series of incubations (n=2) were prepared with no pre-incubation. Probe substrates were then added (with additional cofactor) and further incubated for the times specified. Concentrations of probe substrates used in the incubations have been optimised to maintain first order reaction conditions.
(§9) Reactions were terminated with acetonitrile containing analytical internal standard (carbamazepine), samples then centrifuged to remove microsomal protein and analysed using optimised LC/MS-MS conditions. The MS data were normalised to internal standard and compared to the appropriate solvent controls to determine the amount of metabolite formed from the probe substrate relative to the “uninhibited” controls. The results are quoted as % inhibition. These values were then plotted using the sigmoidal dose response equation (shown below) and IC50's calculated.
(§10) Y=bottom+((top-bottom)/1+10̂((Log IC50−X)*Hill slope)) • X=Log concentration • Y=response
(§11) Variation in probe turnover between plate wells means that inhibition values recorded below 10-15% may not be significant.

For series [7], the target named is CYP450 (Homo sapiens, UniProt P08684). The description is as above. Type of series: in vitro ADME. The settings on record: CYP3A4 (midazolam probe), human hepatic microsomes. As to the method: as §7, §8, §9, §10, §11
Sequence of CYP450 (P08684 whole entry): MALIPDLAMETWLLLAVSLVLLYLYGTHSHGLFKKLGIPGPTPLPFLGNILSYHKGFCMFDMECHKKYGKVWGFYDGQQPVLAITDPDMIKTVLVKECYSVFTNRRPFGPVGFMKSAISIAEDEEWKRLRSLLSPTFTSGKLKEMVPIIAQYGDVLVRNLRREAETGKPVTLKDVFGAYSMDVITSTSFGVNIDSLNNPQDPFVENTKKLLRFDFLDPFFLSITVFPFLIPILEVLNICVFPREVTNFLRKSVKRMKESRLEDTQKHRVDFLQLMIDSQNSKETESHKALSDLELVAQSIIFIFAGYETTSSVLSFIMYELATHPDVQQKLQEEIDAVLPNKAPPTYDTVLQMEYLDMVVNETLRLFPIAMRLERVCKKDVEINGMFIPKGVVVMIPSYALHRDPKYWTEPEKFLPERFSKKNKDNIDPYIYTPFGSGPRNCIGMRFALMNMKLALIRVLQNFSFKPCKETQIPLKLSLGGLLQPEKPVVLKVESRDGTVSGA
In series [8] the target is T1, human ether a go-go (hERG) channel (Homo sapiens, UniProt Q12809).
T1 construct: a Chinese Hamster Lung cell line stably expressing the full length hERG channel
T1 sequence (Q12809 whole entry): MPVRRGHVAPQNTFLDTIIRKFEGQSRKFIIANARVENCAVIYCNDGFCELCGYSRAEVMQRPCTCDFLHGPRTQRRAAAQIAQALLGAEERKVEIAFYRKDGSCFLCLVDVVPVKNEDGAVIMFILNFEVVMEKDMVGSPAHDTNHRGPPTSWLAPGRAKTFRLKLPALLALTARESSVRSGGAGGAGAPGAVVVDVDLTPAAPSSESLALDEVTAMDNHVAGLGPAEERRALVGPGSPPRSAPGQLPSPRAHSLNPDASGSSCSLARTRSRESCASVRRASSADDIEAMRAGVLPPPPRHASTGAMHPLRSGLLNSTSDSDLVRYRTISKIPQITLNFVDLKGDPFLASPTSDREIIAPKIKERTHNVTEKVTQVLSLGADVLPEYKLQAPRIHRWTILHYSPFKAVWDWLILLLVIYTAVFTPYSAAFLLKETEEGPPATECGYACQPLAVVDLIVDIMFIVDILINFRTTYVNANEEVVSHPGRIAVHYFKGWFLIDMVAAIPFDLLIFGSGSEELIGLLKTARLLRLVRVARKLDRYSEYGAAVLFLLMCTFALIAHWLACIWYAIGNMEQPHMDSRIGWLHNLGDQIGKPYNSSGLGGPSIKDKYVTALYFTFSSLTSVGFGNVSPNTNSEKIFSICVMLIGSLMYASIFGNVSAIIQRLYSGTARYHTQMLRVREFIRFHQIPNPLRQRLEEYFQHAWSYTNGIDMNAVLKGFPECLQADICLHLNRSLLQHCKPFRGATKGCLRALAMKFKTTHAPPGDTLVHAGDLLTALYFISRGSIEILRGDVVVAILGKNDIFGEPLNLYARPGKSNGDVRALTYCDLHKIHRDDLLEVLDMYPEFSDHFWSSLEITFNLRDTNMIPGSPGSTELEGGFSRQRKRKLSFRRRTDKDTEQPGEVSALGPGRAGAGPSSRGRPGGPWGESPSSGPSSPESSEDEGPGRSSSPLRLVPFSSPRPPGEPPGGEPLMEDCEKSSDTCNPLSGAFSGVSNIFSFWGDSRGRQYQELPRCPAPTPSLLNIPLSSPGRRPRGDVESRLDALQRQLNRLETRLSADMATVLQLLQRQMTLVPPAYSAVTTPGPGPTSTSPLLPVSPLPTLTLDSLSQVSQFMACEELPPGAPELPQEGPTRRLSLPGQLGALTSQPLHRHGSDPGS
Description: hERG inhibition (IonWorks patch clamp electrophysiology). Type of series: cell-based. The settings on record: maximum final assay concentration 3 μM. The method, then:
Eight-point concentration curves were generated using serial 3-fold dilutions from the maximum final assay concentration (3 μM). Electrophysiological recordings were made from a Chinese Hamster Lung cell line stably expressing the full length hERG channel. Single cell ionic currents were measured in the perforated patch clamp configuration (100 μg/mL) amphotericin) at room temperature (21-23° C.) using an IonWorks Quattro instrument. The internal solution contained (mM): 140 KCl, 1 MgCl2, 1 EGTA, 20 HEPES and was buffered to pH 7.3. The external solution contained (mM):138 NaCl, 2.7 KCl, 0.9 CaCl2, 0.5 MgCl2, 8 Na2HPO4, 1.5 KH2PO4, also buffered to pH 7.3. Cells were clamped at a holding potential of −70 mV for 30 s and then stepped to +40 mV for 1 s. This was followed by a hyperpolarising step of 1s to −30 mV to evoke the hERG tail current. This sequence was repeated 5 times at a frequency of 0.25 Hz. Currents were measured from the tail step at the 5th pulse, and referenced to the holding current. Compounds were then incubated for 6-7 minutes prior to a second measurement of the hERG signal using an identical pulse train. Eight-point concentration curves were generated using serial 3-fold dilutions from the maximum final assay concentration (3 μM).

Like-named read-outs stand apart in the source and are kept apart here.

Sequence of B-Raf (P15056 whole entry): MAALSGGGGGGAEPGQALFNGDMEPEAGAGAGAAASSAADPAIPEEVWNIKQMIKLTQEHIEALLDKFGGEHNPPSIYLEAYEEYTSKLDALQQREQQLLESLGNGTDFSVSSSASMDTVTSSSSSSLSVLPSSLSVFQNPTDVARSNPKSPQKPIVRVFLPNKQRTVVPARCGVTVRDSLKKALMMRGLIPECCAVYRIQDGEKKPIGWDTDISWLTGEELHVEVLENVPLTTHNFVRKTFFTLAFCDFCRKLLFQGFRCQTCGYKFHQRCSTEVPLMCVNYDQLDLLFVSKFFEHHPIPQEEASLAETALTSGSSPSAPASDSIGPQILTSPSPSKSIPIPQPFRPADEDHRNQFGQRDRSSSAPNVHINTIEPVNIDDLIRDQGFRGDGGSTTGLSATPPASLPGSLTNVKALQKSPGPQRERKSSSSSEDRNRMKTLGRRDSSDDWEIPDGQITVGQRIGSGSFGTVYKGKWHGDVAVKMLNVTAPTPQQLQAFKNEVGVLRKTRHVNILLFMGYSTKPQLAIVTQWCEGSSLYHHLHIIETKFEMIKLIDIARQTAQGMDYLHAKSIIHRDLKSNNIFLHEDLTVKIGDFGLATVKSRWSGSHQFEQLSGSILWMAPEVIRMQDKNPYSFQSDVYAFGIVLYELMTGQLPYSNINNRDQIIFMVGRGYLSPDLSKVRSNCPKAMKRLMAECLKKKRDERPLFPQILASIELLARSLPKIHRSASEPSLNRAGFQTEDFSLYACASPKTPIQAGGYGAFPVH
Sequence of CYP2C9 (P11712 whole entry): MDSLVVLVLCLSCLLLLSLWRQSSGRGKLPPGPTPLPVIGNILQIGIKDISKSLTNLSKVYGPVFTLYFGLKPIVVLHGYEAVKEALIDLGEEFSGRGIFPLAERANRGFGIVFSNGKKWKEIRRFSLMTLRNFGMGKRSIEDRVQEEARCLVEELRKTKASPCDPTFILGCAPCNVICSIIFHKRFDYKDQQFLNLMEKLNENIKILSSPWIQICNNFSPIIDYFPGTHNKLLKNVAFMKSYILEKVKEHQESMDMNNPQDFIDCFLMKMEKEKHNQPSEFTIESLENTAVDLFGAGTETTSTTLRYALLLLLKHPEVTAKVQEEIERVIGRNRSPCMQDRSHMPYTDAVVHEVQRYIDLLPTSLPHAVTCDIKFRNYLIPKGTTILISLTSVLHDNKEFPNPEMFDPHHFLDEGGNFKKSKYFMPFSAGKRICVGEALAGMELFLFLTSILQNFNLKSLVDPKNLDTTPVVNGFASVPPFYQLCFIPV

As for `COc1cc(Nc2nccc(Oc3ccc(NC(=O)Nc4cc(C(C)C)nn4-c4ccc(C)cc4)c4ccccc34)n2)cc(C(=O)NCCN2CCOCC2)c1` [Example 8, 3-((4-((4-(3-(3-Isopropyl-1-(p-tolyl)-1H-pyrazol-5-yl)ureido)naphthalen-1-yl)oxy)pyrimidin-2-yl)amino)-5-methoxy-N-(2-morpholinoethyl)benzamide], the inhibition at 0.5 µM in series [1] (read-out: % Inhibition of kinase binding at 500 nM, B-Raf) turned out to be 29%.
For `C#Cc1cc(Nc2nccc(Oc3ccc(NC(=O)Nc4cc(C(C)C)nn4-c4ccc(C)cc4)c4ccccc34)n2)cc(C(=O)NCCN2CCOCC2)c1` [Example 46, 3-ethynyl-5-((4-((4-(3-(3-isopropyl-1-(p-tolyl)-1H-pyrazol-5-yl)ureido)naphthalen-1-yl)oxy)pyrimidin-2-yl)amino)-N-(2-morpholinoethyl)benzamide], in series [2], the “IL-1b, IL-6 and IL-8 release from biopsies of UC patients” value is “markedly reduced”. Also, in series [3], the “inflammatory cell infiltrate in the reticular and lamina propria zones” value was “marked reduction”; the “activity in the in vivo model of colonic inflammation (histopathology analysis)” value is reported as “significant activity”; the “ulcer grade and epithelial repair compared to the vehicle control” value was “marked improvements”.
Turning to `C#Cc1cc(Nc2nccc(Oc3ccc(NC(=O)Nc4cc(C(C)(C)C)nn4-c4ccc(OC)cc4)c4ccccc34)n2)cc(C(=O)NCCN2CCOCC2)c1` [Example 77, 3-((4-((4-(3-(3-(tert-Butyl)-1-(4-methoxyphenyl)-1H-pyrazol-5-yl)ureido)-naphthalen-1-yl)oxy)pyrimidin-2-yl)amino)-5-ethynyl-N-(2-morpholinoethyl)benzamide], the “effect on the binding of the kinase B-Raf to its standard ligand” value in series [1] (KINOMEscan) is recorded as “did not have any effect on the binding”. In addition, the “IL-1b, IL-6 and IL-8 release from biopsies of UC patients” value in series [2] is listed as “markedly reduced”. For the same compound, the “inflammatory cell infiltrate in the reticular and lamina propria zones” value in series [3] is “marked reduction”. Besides, in series [3], the “activity in the in vivo model of colonic inflammation (histopathology analysis)” value is given as “significant activity”. In addition, the “ulcer grade and epithelial repair compared to the vehicle control” value in series [3] is given as “marked improvements”. In addition, the “Mean hepatic extraction ratio (Eh)” value in series [4] is on record as 0.94; in series [5] (dog hepatic microsomes), 0.94; in series [5] (rat hepatic microsomes), 0.82. The microsomal CLint at 0.1 μM in series [4] amounted to 308 µL/min/mg; in series [5] (dog hepatic microsomes), 189 µL/min/mg; in series [5] (rat hepatic microsomes), 120 µL/min/mg. Besides, the hepatic clearance result in series [4] is listed as “high hepatic clearance”. In addition, the inhibition at 15 µM was -4% in series [6] (0 min preincubation) and 1% in series [6] (30 min preincubation). For the same compound, the results for the IC50 in series [7] (0 min preincubation), in series [7] (30 min preincubation) and in series [8] were > 15 µM, > 15 µM and > 3 µM, respectively.
For the compound `C#Cc1cc(Nc2nccc(Oc3ccc(NC(=O)Nc4cc(C(C)(C)C)nn4-c4ccc(N(C)C)cc4)c4ccccc34)n2)cc(C(=O)NCCN2CCOCC2)c1` [Example 80, 3-((4-((4-(3-(3-(tert-Butyl)-1-(4-(dimethylamino)phenyl)-1H-pyrazol-5-yl)ureido)naphthalen-1-yl)oxy)pyrimidin-2-yl)amino)-5-ethynyl-N-(2-morpholinoethyl)-benzamide], in series [4], the “Mean hepatic extraction ratio (Eh)” value was found to be 0.93, the microsomal CLint at 0.1 μM was 216 µL/min/mg and the hepatic clearance result is “high hepatic clearance”. Moreover, in series [5] (dog hepatic microsomes), the “Mean hepatic extraction ratio (Eh)” value worked out at 0.91 and the microsomal CLint at 0.1 μM was 146 µL/min/mg. Moreover, in series [5] (rat hepatic microsomes), the microsomal CLint at 0.1 μM turned out to be 91 µL/min/mg and the “Mean hepatic extraction ratio (Eh)” value is reported as 0.77. The IC50 in series [8] was > 3 µM.
